Reference: PubChem BioAssay (NCI)
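Results reflect a 48-hour exposure of cells in 96-well plates to compound at five concentrations. TGI: concentration producing complete growth inhibition.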 Where a SMILES comes first, the peptide text is derived from it. The star is where a group is joined. Cbz = O=C(OCc1ccccc1)*; Boc = CC(C)(C)OC(=O)*; tBu = CC(C)(C)*

What was measured:
Assay in all cases: DTP human tumour cell line panel, 48 h
MOLT-4 leukemia = tested on: MOLT-4 leukemia
SK-OV-3 ovarian = tested on: SK-OV-3 ovarian
PC-3 prostate = tested on: PC-3 prostate
OVCAR-4 ovarian = tested on: OVCAR-4 ovarian
NCI-H522 lung = tested on: NCI-H522 lung

| Compound | TGI (MOLT-4 leukemia) [µM] | TGI (SK-OV-3 ovarian) [µM] | TGI (PC-3 prostate) [µM] | TGI (OVCAR-4 ovarian) [µM] | TGI (NCI-H522 lung) [µM] |
| --- | --- | --- | --- | --- | --- |
| COc1cc(O)c2c(c1)OCC(Cc1ccc(O)cc1)C2=O (stereo not given) | > 100 | > 100 | > 100 | > 100 | > 100 |
| COc1ccccc1N1CCN(CCCN2/C(=C(\O)c3ccccc3)C(=O)c3c(C)cc(C)nc3S2(=O)=O)CC1 | > 100 | > 100 | > 100 | > 100 | > 100 |
| Cc1cccc2c(N)c3cccc(C(=O)NCC[N+](C)(C)Cc4c([N+](=O)[O-])ncn4C)c3nc12 | > 100 | > 71.1 | > 100 | > 72.5 | > 52.9 |
| O=c1[nH]nc(Cc2ccccc2)[nH]1 | > 100 | – | > 100 | > 100 | > 100 |
| O=C1NCCCNCCCNCCCNC(=O)c2cccc1n2 | > 100 | > 100 | > 100 | > 100 | > 100 |
| O=C1C=CC=C/C1=C1\N=C(c2ccccc2OCC(=O)c2ccc(Br)cc2)SS1 | – | > 100 | > 100 | > 100 | – |
| CN1C2CCC1CC(CCNC(c1ccccc1)c1ccccc1)C2 (stereo not given) | > 100 | > 100 | > 100 | > 100 | 85.7 |
| CC12CCC([C@H](C(O)C3CCCCC3)C1=O)C2(C)C (stereo not given in full) | > 100 | > 100 | > 100 | > 100 | > 100 |
| O=c1[nH]c(Nc2nc3ccccc3[nH]2)nc2c1CCC2 | – | > 100 | > 100 | > 100 | > 100 |
| CC(=O)N[C@@H](Cc1ccc(O)cn1)C(=O)NCc1cccc(Cl)c1 | > 100 | > 100 | > 100 | > 100 | > 100 |
| CC1ON2CCCC2[C@H]1C(=O)N1C2CC3CCC2(CS1(=O)=O)C3(C)C (stereo not given in full) | > 100 | > 100 | > 100 | > 100 | > 100 |
| O=C(O)Cc1cccc2c1OC(c1ccccc1)C(Cl)(C(=O)c1ccccc1)C2=O (stereo not given) | 62.3 | > 100 | 24.3 | – | 29.6 |
| O=C(Cc1ccccc1)N/N=C/c1ccccc1O | > 100 | > 100 | > 100 | > 100 | > 100 |
| O=C1O/C(=C(/Br)c2ccc(Cl)c(Cl)c2)c2ccccc21 | > 10 | > 10 | > 10 | > 10 | > 10 |
| CCOC(=O)C1(C(=O)OCC)C[C@H](C)[C@](C)(O)C1 | > 100 | > 100 | > 100 | > 100 | > 100 |
| NC(N)=N/N=C/c1c(-c2cccc([N+](=O)[O-])c2)nc2n1CCS2 | 29.8 | – | 44.5 | 29.8 | 32.2 |
| COc1ccc(C2C3=C(Nc4ncnn42)c2ccccc2OC3c2ccccc2)cc1 (stereo not given) | 51 | > 100 | > 100 | – | – |
| Cc1cc(C)n(C2OC(CO)C(O)C(O)C2O)c(=S)c1C#N (stereo not given) | > 100 | – | > 100 | > 100 | > 100 |
| Cc1ccc(/C=C2\CCC/C(=C\c3ccc(O)c(CN4CCCCC4)c3)C2=O)cc1 | 9.03 | 26.3 | > 47.5 | 33 | 17.9 |
| Cc1ccc(NC(=O)c2cccc(OP(=O)(O)Nc3ccc(C)cc3)c2)cc1 | > 100 | > 100 | > 100 | > 100 | > 100 |
| COC(=O)C(NC(=O)c1ccccc1)c1ccco1 (stereo not given) | > 100 | > 100 | > 100 | – | – |
| CC(=O)OCCOCn1cnc2c(Cl)nc(Cl)nc21 | 40 | – | 36.5 | 37.5 | 4.07 |
| O=C1N[C@@H](c2c[nH]c3cc(Br)ccc23)C(=O)N[C@H]1c1c[nH]c2cc(Br)ccc12 | – | > 100 | > 100 | > 100 | > 100 |
| COC(=O)C1C(=O)C=CN([C@H](C)c2ccccc2)[C@@H]1Cc1ccc(OC)c(OCc2ccccc2)c1I (stereo not given in full) | > 100 | > 100 | > 100 | 79.9 | 36.8 |
| CC(OC(C)(C)C)C(NC(=O)C(CCCCNC(=O)OC(C)(C)C)NC(=O)C(Cc1c[nH]c2ccccc12)NC(=O)C(Cc1ccccc1)NC(=O)OCc1ccccc1)C(=O)NC(Cc1ccccc1)C(=O)O (stereo not given) (Cbz-FWK(Boc)T(tBu)F-OH; configuration not given here) | > 100 | > 100 | > 100 | > 100 | 85 |
| CCOP(=O)(CN1CCNCCNCC1)OCC | > 100 | > 100 | > 100 | > 100 | > 100 |

| Compound | TGI (MOLT-4 leukemia) [µM] | TGI (SK-OV-3 ovarian) [µM] | TGI (PC-3 prostate) [µM] | TGI (OVCAR-4 ovarian) [µM] | TGI (NCI-H522 lung) [µM] |
| --- | --- | --- | --- | --- | --- |
| CCOP(=O)(O)C1C(CO)OC(n2ccc(=O)[nH]c2=O)C1O (stereo not given) | > 100 | – | > 100 | > 100 | > 100 |
| CC(C)Oc1ccc2c(c1)OCC1Cc3ccccc3OC21 (stereo not given) | > 100 | > 100 | > 100 | – | > 100 |
| COC/C=C\[C@]1(O)CCCC[C@@H]1CC(OC)OC | 91.2 | > 100 | > 100 | > 100 | > 100 |
| CC(C)(C)c1ccc(-c2nc3ccc(Cl)cc3c(=O)o2)cc1 | 36.3 | 68.7 | 92.1 | 63.1 | 29.7 |
| COc1ccc(N2C(=O)C3ON(C(C(N)=O)c4ccccc4)C(c4cc5ccccc5c5ccccc45)C3C2=O)cc1 (stereo not given) | 46.9 | > 50 | > 50 | > 50 | > 50 |
| Cc1nn(C(=O)Cc2ccccc2)c2c1C(c1ccc(N(C)C)cc1)SC(N)=N2 (stereo not given) | > 100 | > 100 | > 100 | – | > 100 |
| COc1cc2c(cc1OC)CCc1cc(OC)c(OC)cc1CC2 | > 100 | > 100 | > 100 | > 100 | – |
| NC(=S)Nc1ccc(S(=O)(=O)Nc2ccc(S(N)(=O)=O)cc2)cc1 | > 100 | – | > 100 | > 100 | > 100 |
| CCn1c2ccccc2n2c(=O)c3c(c(C#N)c12)CCCC3 | > 100 | > 100 | > 100 | > 100 | > 100 |
| COC(=O)C1=C(C(=O)OC)c2cc(OC)ccc2C(C(=S)N(C)C)S1 (stereo not given) | > 100 | > 100 | > 100 | > 100 | – |
| O=C1C(Cl)C(c2cccc(Cl)c2)N1c1ccc(-n2c(=S)[nH]c3ccccc3c2=O)cc1 (stereo not given) | 37.6 | 72.5 | > 100 | 39.6 | 31.3 |
| Cc1ccc(NC(=S)N/N=C(/c2ccccc2)c2ccccn2)cc1 | > 12.3 | 9.29 | 20.9 | 16.6 | 24.4 |
| NNc1nncc2n[nH]nc12 | > 100 | – | > 100 | – | – |
| Cc1ccc(C)c(COCCOCn2ccc(N)nc2=O)c1 | > 100 | > 100 | > 100 | – | > 100 |
| COC1(OC)CC(CO)(CNc2nc(N)nc(Cl)c2/C=N\O)C1 | 85.4 | – | > 100 | > 100 | > 100 |
| N#Cc1nc(C2=C(Cl)c3ccccc3OC2)[nH]c1C#N | 40.5 | > 100 | 71.7 | > 100 | – |
| N#Cc1c(-c2ccccc2)cc(Nc2cccc(C(F)(F)F)c2)n2c1nc1ccccc12 | 41 | 8.73 | – | 22.2 | 1.37 |
| Cc1ccc(-c2c3nc(c(-c4ccc(C)cc4)c4ccc([nH]4)c(-c4ccc(OCC5COC(C)(C)O5)cc4)c4nc(c(-c5ccc(C)cc5)c5ccc2[nH]5)C=C4)C=C3)cc1 (stereo not given) | > 31.6 | – | – | > 31.6 | > 31.6 |
| c1ccc(CSP234N5CCN2CCN3CCN4CC5)c(CSP234N5CCN2CCN3CCN4CC5)c1 | > 100 | – | > 100 | > 100 | > 100 |
| CC1(C)CC(=O)C(/C=N/c2nc(-c3ccccc3)cs2)=C(O)C1 | > 100 | > 100 | > 100 | > 100 | – |
| CN(/N=C/c1ccc(OCc2cccc(COc3ccc(C=O)cc3)n2)cc1)c1cnn(-c2ccc(Cl)cc2Cl)c(=O)c1Cl | > 100 | – | > 100 | > 100 | > 100 |
| N#C/C(N)=C(\C#N)N=CN | > 100 | > 100 | > 100 | > 100 | – |
| COc1cc(/C=C2\N=C(c3ccccc3)N(c3nc4c(OC)ccc(OC)c4s3)C2=O)ccc1O | 39.5 | > 100 | > 100 | – | > 100 |
| Cc1ccc(N=Nc2c(C)c(C#N)c(=S)n(C3OC(CO)C(O)C(O)C3O)c2C)cc1 (stereo not given) | 48.6 | > 100 | > 100 | > 100 | – |
| O=c1oc2cc(O)ccc2c(O)c1C(c1ccccc1F)c1c(O)c2ccc(O)cc2oc1=O | > 100 | > 100 | > 100 | – | > 100 |
